# Tests used:
# [1] = system: human breast adenocarcinoma cell line T47D; test: MTT cytotoxicity assay; format: cell-based; conditions: 40 µM, 24 h
# Description: MTT (3-(4,5-dimethylthiazol-2-yl)-2,5-diphenyltetrazolium-bromide) assay was performed according to Felczykowska et al.. Briefly, cytotoxicity assessment was conducted against human breast adenocarcinoma cell line T47D obtained from the European Collection of Authenticated Cell Cultures (ECACC) through Merck KGaA (Darmstadt, Germany). Cells were cultured in 96-well plates using RPMI1640 medium (Carl Roth GmbH, Karlsruhe, Germany) supplemented with a fetal bovine serum (10% v/v; Sigma-Aldrich by Merck KGaA, Darmstadt, Germany) and penicillin-streptomycin solution (1% v/v, stock solution 50 u and 0.05 mg mL^−1, respectively; Merck KGaA, Darmstadt, Germany) at 1 × 10^4 cells per well and incubated for 24 h. After the addition of the tested compounds (40, 80, 160 and 320 µM) dissolved in 1% DMSO, samples were incubated for another 24 h. Then, MTT reagent was added (25 µL at 4 mg mL^−1 in PBS; Merck KGaA; Darmstadt, Germany) and the samples were incubated for 4 h. Lastly, formazan crystals were dissolved in 100% DMSO and absorbance was measured using a microplate reader (Spectramax i3, Molecular Devices, LLC San Jose, CA, USA). Cell viability was calculated as the ratio of the mean absorbance value measured in two independent assays, for the three replicates containing the samples, to the mean absorbance of the three replicates of the corresponding solvent control and expressed as a percentage.
# [2] = system: Huh7 cells; test: CellTiter-Glo cell viability assay; format: cell-based, human; conditions: 24 h; for effect on Huh7 cell viability: 10 nM to 100 µM; for mean luciferase expression (relative luminescence), cell viability: normalized to untreated cells
# Description: (§1) To determine cell viability and ROS level, Huh7 cells were seeded at 10,000 cells per well in white 96-well plates. After overnight incubation, the medium was removed and replaced with 100 μL of RPMI1640 supplemented with increasing concentrations of AEGs ranging from 10 nM to 100 μM (cell viability) or ranging from 1 µM to 100 μM (ROS), with three replicates at each concentration. After incubation for 24 h, cells viability was examined using a Cell Titer-Glo Luminescent Cell Viability Assay (Promega, Madison, WI, USA) and ROS was measured using a ROS-Glo H2O2 Assay (Promega, Madison, WI, USA).
# [3] = In vitro S9 stability assay (LC-MS/MS); format: in vitro ADME, human; conditions: for change of concentration in active S9 fraction / change of concentration in heat-denatured S9 fraction: up to 60 min; for change of concentration in heat-denatured S9 fraction: heat-denatured (deactivated) S9 fraction
# Description: Human S9 liver fraction (catalogue no. HMS9PL, lot no. PL045-A) (protein content 20 mg mL^−1), containing a mixture of microsomal and cytosol enzymes, was used (Thermo Fisher Scientific, Waltham, MA USA) together with the following activating cofactors: NADPH (Alfa Aesar, Wart Hill, MA, USA), UDPGA (Merck KGaA; Darmstadt, Germany) and GSH (Merck, Darmstadt Germany). All cofactors (20 mM) and the analysed AEGs (3 µM) were prepared in 1% DMSO, the reaction was performed in a buffer (200 mM Tris (Merck KGaA, Darmstadt, Germany), 2 mM MgCl2 and 1M NaOH (Avantor Performance Materials Poland S.A., Gliwice, Poland); pH 7.4) 7-etoxycoumarine (7-EC; 3 µM in 20% DMSO) (Merck KGaA, Darmstadt, Germany) was used as a positive control. Tubes with 236 µL of buffer and 24 µL of S9 fraction were prepared in duplicates. Half of the samples was kept on ice, while the other half was deactivated by heating at 80 °C for 10 min and then cooled to room temperature. Cofactors were mixed (1:1:1) and 120 µL of the mixture, together with 20 µL of 7-EC were added to all samples. The aliquots (25 µL) of the samples were withdrawn at 0, 15, 30, 45, and 60 min, and 50 µL of an ice-cold ACN:MeOH (50:50) was added to stop the reaction. The samples were centrifuged (10,000× g, 4 °C, 10 min) and the supernatants were analysed by LC-MS/MS. The test was repeated twice. The elimination half-life was calculated as in Wen and Walle.
# LC-MS/MS analyses were performed using an Agilent 1200 (Agilent Technologies, Waldboronn, Germany) chromatographic system coupled with a hybrid triple quadrupole/linear ion trap mass spectrometer (QTRAP5500, Applied Biosystems, Sciex, Concorde, ON, Canada) as a detector. AEGs were separated in a Zorbax Eclipse XDB-C18 column (4.61 mm × 150 mm; 5 µm) (Agilent Technologies, Santa Clara, CA, USA). The composition of the mobile phase was the same as in preparative chromatography. For analysis of the collected chromatographic fractions, the gradient changed from 15% B to 99% B over 20 min (flow rate 0.6 mL min^−1). The Turbo IonSource operated in positive ionisation mode at capillary voltage of 5.5 kV and source temperature of 550 °C. Cone gas pressure and desolvation gas pressure were 60 psi, declustering potential was 80 V, and collision energy was 60 ± 20 eV. Q3-information-dependent analysis (IDA) and enhanced product ion (EPI) modes were used. The IDA threshold was set at 500,000 cps, and the m/z range was 400–1000. The scan rate was 2000 amu s^−1, and the linear ion trap fill time 50 ms. For analysis of AEGs and 7-EC, the chromatographic gradient changed from 15% B to 25% B in 5 min, then to 99% B in the next 5 min (0.6 mL min^−1). MS operated in multiple reaction monitoring mode at collision energy CE 50 V and with the following transitions: 191 → 163, 119, 107 (q), 91 (for 7-EC); 561 → 222, 186, 86 (q) (for AEG A); 626 → 296, 136 (q), 70 (for AEG 625) and 658 → 296, 199 (q), 120 (for AEG 657). To determine the changes in AEGs concentrations, the peak areas of the most intensive ions (q) were measured.
# [4] = target: T1, CYP3A4 (Homo sapiens, UniProt P08684); test: Vivid CYP450 screening kit, CYP3A4 Blue; format: biochemical; conditions: for effect on CYP3A4 activity: up to 60 µM
# T1 construct: purchased Thermo Fisher Scientific P2857; host or cells: baculovirus expression system (insect cell microsomes)
# Description: The following commercially available Vivid® CYP450 Screening Kits were performed according to the instruction supplied by the manufacturer (Thermo Fisher Scientific, Waltham, MA, USA): Vivid® CYP2C9 Blue (cat. no. P2861), Vivid® CYP2D6 Blue (cat. no. P2972) and Vivid® CYP3A4 Blue (cat. no. P2857). The CYP450 BACULOSOMES Plus Reagent (with the recombinant human cytochrome P450 and human cytochrome 450 reductases), Vivid Regeneration System (333 mM glucose-6-phosphate and 30 U mL^−1 glucose-6-phosphate dehydrogenase in 100 mM K3PO4, pH 8.0), and Vivid NADP^+ (10 mM NADP^+ in 100 mM K3PO4, pH 8.0) were thawed at room temperature and kept on ice until use. After adjustment to room temperature, the Vivid substrate was dissolved in anhydrous acetonitrile (10 µM), and the fluorescence standard was dissolved in DMSO (100 µM). The test compounds and inhibitors were diluted with the Vivid® CYP450 reaction buffer. […] In the subsequent steps, 5 µL solutions of test compounds, inhibitors and solvent were added to the wells. Then, 5 µL of Master Pre-Mix (mixture of Reagent, Regeneration System and the Reaction Buffer) was dispensed to each well. After 10 min incubation at room temperature, the reaction was started by the addition of 5 µL of a mixture composed of Vivid® Substrate and NADP^+. Tests were performed in endpoint mode using 384-well plates. Excitation wavelength was 415 nm and emission was measured at 460 nm, at the start of the test and after 60 min. The test was performed with three replicates at each concentration.
# [5] = system: A2780 human ovarian tumour cells; parameters: method as in PMID 34237867; conditions: previous study; read-out: IC50 cytotoxic activity, A2780; cited from earlier work
# [6] = system: K562 human leukaemia cells; parameters: method as in PMID 34237867; conditions: previous study; read-out: IC50 cytotoxic activity, K562; cited from earlier work
# [7] = target: CYP2C9 (Homo sapiens, UniProt P11712); test: Vivid CYP450 screening kit, CYP2C9 Blue; conditions: for reduction of CYP2C9 activity: 60 µM, 60 min incubation
# Description: (§2) The following commercially available Vivid® CYP450 Screening Kits were performed according to the instruction supplied by the manufacturer (Thermo Fisher Scientific, Waltham, MA, USA): Vivid® CYP2C9 Blue (cat. no. P2861), Vivid® CYP2D6 Blue (cat. no. P2972) and Vivid® CYP3A4 Blue (cat. no. P2857). […] After adjustment to room temperature, the Vivid substrate was dissolved in anhydrous acetonitrile (10 µM), and the fluorescence standard was dissolved in DMSO (100 µM). The test compounds and inhibitors were diluted with the Vivid® CYP450 reaction buffer. […] In the subsequent steps, 5 µL solutions of test compounds, inhibitors and solvent were added to the wells. Then, 5 µL of Master Pre-Mix (mixture of Reagent, Regeneration System and the Reaction Buffer) was dispensed to each well. After 10 min incubation at room temperature, the reaction was started by the addition of 5 µL of a mixture composed of Vivid® Substrate and NADP^+. Tests were performed in endpoint mode using 384-well plates. […] The test was performed with three replicates at each concentration.
# [8] = target: CYP2D6 (Homo sapiens, UniProt P10635); test: Vivid CYP450 screening kit, CYP2D6 Blue
# Description: as §2
# [9] = system: MIR92b-3p in Huh7-pmirGLO-92b cells; test: Dual-luciferase reporter assay for inhibitors of MIR92b-3p function; format: cell-based, human; conditions: 100 µM, 24 h
# Description: In this study, the reporter assays for small-molecule inhibitors of the MIR92b-3p function, previously designed to screen Nostoc peptides, were used. The screen employs a Huh7 human hepatoma cell line (Cell Lines Service GmbH, CLS; Eppelheim, Germany) stably transfected with a pmirGLO vector containing dual-luciferase reporters. Briefly, for the chemical screening of AEGs, Huh7-pmirGLO-MIR92b-3p cells were seeded at 10,000 cells per well in white, 96-well plates (Thermo Fisher Scientific, Waltham, MA, USA). After overnight incubation, the medium was removed and replaced with 100 μL of RPMI1640 (Merck, KGaA, Darmstadt, Germany), supplemented with increasing concentrations of AEGs, ranging from 10 nM to 100 μM, with three replicates at each concentration. Cells were incubated for 24 h and then analysed with a dual-luciferase Reporter Assay Kit (Promega, Madison, WI, USA). Relative luciferase activity was calculated using the ratio of firefly (F) and Renilla (R) luciferase activity (F/R).
# [10] = system: ROS (reactive oxygen species) levels in Huh7 cells; test: ROS-Glo H2O2 assay; format: cell-based, human; conditions: 1 µM to 100 µM, 24 h, concentration-dependent
# Description: as §1
# [11] = active S9 fraction, 60 min, 3 µM
# [12] = human, recombinant CYP2D6 (CYP450 BACULOSOMES Plus Reagent), probe Vivid CYP2D6 Blue substrate
# Chain of CYP2D6 (P10635 whole entry): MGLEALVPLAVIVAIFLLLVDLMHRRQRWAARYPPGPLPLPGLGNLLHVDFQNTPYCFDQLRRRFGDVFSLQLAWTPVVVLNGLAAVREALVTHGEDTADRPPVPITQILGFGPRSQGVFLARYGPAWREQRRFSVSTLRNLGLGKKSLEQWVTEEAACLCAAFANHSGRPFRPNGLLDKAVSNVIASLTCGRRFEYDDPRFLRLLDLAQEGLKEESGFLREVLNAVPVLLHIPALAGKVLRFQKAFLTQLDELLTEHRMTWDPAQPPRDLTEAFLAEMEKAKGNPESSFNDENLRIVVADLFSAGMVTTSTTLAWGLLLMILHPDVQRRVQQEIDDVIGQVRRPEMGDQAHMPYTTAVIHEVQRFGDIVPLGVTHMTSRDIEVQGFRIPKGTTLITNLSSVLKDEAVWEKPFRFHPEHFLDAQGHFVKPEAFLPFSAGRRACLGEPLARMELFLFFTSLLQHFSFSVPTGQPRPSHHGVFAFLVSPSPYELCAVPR
# Chain of CYP2C9 (P11712 whole entry): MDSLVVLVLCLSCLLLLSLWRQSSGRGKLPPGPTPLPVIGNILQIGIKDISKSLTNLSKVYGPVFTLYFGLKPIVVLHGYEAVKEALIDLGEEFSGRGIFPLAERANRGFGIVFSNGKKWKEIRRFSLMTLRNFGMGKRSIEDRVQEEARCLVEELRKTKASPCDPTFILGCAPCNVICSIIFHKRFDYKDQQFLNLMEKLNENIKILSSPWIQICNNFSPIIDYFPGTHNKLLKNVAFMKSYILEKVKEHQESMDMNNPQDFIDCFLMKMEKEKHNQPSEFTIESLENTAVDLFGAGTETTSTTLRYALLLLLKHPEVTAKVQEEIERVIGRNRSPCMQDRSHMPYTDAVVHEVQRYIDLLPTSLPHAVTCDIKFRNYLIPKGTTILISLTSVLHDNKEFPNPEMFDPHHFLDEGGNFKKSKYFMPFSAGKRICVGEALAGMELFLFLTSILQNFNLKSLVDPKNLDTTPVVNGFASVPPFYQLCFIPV
# T1 sequence (P08684 2-503 limits assumed): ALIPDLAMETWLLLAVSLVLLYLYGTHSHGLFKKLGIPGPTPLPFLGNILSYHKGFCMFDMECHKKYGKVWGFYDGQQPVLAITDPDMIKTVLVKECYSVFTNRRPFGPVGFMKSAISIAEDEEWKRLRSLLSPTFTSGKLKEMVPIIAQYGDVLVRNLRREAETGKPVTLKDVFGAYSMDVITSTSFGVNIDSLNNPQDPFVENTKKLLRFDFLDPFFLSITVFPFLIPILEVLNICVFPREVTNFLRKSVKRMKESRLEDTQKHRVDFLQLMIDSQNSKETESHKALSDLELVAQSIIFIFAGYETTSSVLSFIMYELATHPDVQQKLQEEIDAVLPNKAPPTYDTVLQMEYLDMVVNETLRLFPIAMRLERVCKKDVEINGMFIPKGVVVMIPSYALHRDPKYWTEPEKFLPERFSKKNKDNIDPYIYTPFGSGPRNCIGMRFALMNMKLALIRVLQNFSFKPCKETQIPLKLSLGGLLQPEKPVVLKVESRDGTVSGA
structure (smiles),measurement,setting,value
CCC(C)C(C(=O)NC(C(=O)N1CCCC1c1nc(C(=O)O)cs1)C(C)C)N(CC=C(C)C)CC=C(C)C (stereo not drawn) [AEG A],inhibition of T47D viability,[1],no effects were observed
same,effect on Huh7 cell viability,[2],did not affect either of the two cancer cell lines
same,"concentration remaining, % of initial value","[3]; active S9 fraction, 15 min, 3 µM",2.9%
same,"concentration remaining, % of initial value",[3]; [11],0.4%
same,"concentration remaining, % of initial value","[3]; heat-denatured S9 fraction, 15 min",56.0%
same,"concentration remaining, % of initial value","[3]; heat-denatured S9 fraction, 60 min",46.0%
same,half-life at 3 µM,"[3]; human, liver S9 fraction (active), pH 7.4, active S9 fraction with NADPH, UDPGA, GSH, read-out: elimination half-life t1/2",2.48 min
same,IC50,[4]; 60 min incubation,5.7 µM
same,effect on CYP3A4 activity,[4],"active against CYP3A4, but only at the two highest concentrations"
same,IC50,[5],2.9 µM
same,IC50,[6],5.2 µM
same,reduction of CYP2C9 activity,[7],28.7%
same,remaining CYP2D6 activity (reduced to),[8]; 6 µM,78.4%
same,remaining CYP2D6 activity (reduced to),[8]; 60 µM,60.4%
same,IC50 at 60 min,[8]; [12],8.6 µM
"Nc1ccc(S(=O)(=O)Nc2ccnn2-c2ccccc2)cc1 [sulfaphenazole, reference compound]",reduction of CYP2C9 activity,[7],44.9%
same,IC50 at 60 min,[7]; human,6.1 µM
C=CC(C)(C)NC(Cc1ccc(O)cc1)C(=O)NC(C(=O)N1CCCC1C(=O)N1CCCC1c1nc(C(=O)O)cs1)C(C)C (stereo not drawn) [AEG625],inhibition of T47D viability,[1],48%
same,luciferase signal intensity (MIR92b-3p reporter),[9],slight increase in signal intensity
same,effect on Huh7 cell viability,[2],no apparent effect
same,"mean luciferase expression (relative luminescence), cell viability",[2]; 50 µM,0.73 (SD = 0.47)
same,"mean luciferase expression (relative luminescence), cell viability",[2]; 100 µM,0.70 (SD = 0.27)
same,change of ROS levels in Huh7 cells,[10],twofold
same,change of concentration in active S9 fraction,[3]; active S9 fraction,neither changes in the active nor in the deactivated fraction were detected
same,change of concentration in heat-denatured S9 fraction,[3],neither changes in the active nor in the deactivated fraction were detected
same,effect on CYP3A4 activity,[4],No significant loss of CYP3A4 activity
same,reduction of CYP2C9 activity,[7],43.9%
same,effect on CYP2D6 activity,[8]; up to 60 µM,did not induce any effects
"C=C[C@H]1C[N@@]2CC[C@H]1C[C@@H]2[C@@H](O)c1ccnc2ccc(OC)cc12 [Quinidine, reference compound]","inhibition at 60 min, 60 µM",[8]; human,96.2%
"CCOc1ccc2ccc(=O)oc2c1 [7-EC, 7-etoxycoumarin, reference compound]",elimination half-life t1/2,"[3]; active S9 fraction with NADPH, UDPGA, GSH",38.7 min
same,"concentration remaining, % of initial value",[3]; [11],28.6%
same,change of concentration in heat-denatured S9 fraction,[3],no changes were observed
C=CC(C)(C)NC(Cc1ccccc1)C(=O)NC(Cc1ccccc1)C(=O)N1CCCC1C(=O)N1CCCC1c1nc(C(=O)O)cs1 (stereo not drawn) [AEG657],inhibition of T47D viability,[1],63%
same,effect on Huh7 cell viability,[2],lack of significant effects
same,change of concentration in active S9 fraction,[3]; active S9 fraction,neither changes in the active nor in the deactivated fraction were detected
same,change of concentration in heat-denatured S9 fraction,[3],neither changes in the active nor in the deactivated fraction were detected
same,CYP3A4 activity lower than in the control,[4]; 60 µM,approx. 18%
same,reduction of CYP2C9 activity,[7],40.7%
same,"inhibition at 60 min, 60 µM",[8]; [12],33.2%

# From PMC8878463, “Biological Activity and Stability of Aeruginosamides from Cyanobacteria” (Marine Drugs, 2022)
